Where two headings read alike, the source gives them in different places.

A short description of data set [1]: in vivo. As to conditions: rat, iv, 20 mg/kg. On the procedure: (§1) DAI in the form of a suspension in saline was administered to the rats at the doses of 20 mg/kg (i.v.) and 50 mg/kg (i.p.).
Blood samples were collected via a retro-orbital puncture at 15 min, 30 min, 3 h, 5 h, and 24 h after i.v. administration. The first two blood samples (at 15 min and 30 min) were withdrawn while the rats were still under general anesthesia. For the later time-points, the blood was taken under a short isoflurane anesthesia. One mL of saline was administered i.p. after every blood withdrawal to compensate the loss of water. The rats were sacrificed by decapitation 24 h after compound administration. All blood samples were centrifuged to obtain serum. The serum samples were frozen in a freezer at −80 °C.
(§2) PK parameters were calculated using a non-compartmental approach from the average concentration values, using Phoenix WinNonlin software (Certara, St. Louis, MO, USA). The first-order elimination rate constant (λz) was calculated by linear regression of log concentration versus time. The area under the mean serum and tissue concentration versus time curve (AUC0⟶t) was calculated from zero to the last concentration point using the linear trapezoidal rule as (1) AUC0→t=∑i=1nCi+Ci+1/2·(ti+1−ti) where Ci is the concentration of the compound.
(§3) The area under the first-moment curve (AUMC0⟶t) was estimated by calculation of the total area under the first-moment curve:(2) AUMC0→t=∑i=1n((ti·Ci+ti+1·Ci+1)/2)·(ti+1−ti) where ti is the […].
(§4) Mean residence time (MRT) was calculated as (3) MRT=AUMC0→t/AUC0→t
Systemic clearance (Cl) was calculated as (4) Cl=Div/AUC0→t
The volume of distribution at steady state (Vss) was calculated as (5) Vss=Div⋅AUMC0→t/(AUC0→t)^2

Data set [2] in a line: in vivo. As to conditions: for tmax: DAI in suspension, i.p. 50 mg/kg, rat serum. As for the experimental part: as §1
The second study was conducted in 48 animals to assess DAI tissue penetration and bioavailability. […] Animals were deeply anaesthetized by i.p. injections of 50 mg/kg ketamine plus 8 mg/kg xylazine before sacrifice. First, the blood was collected by retro-orbital puncture, and the blood samples were centrifuged to obtain serum. The serum samples were frozen in a freezer at −80 °C. A whole-body saline perfusion was then performed after wide laparotomy when the heart was exposed, and the tip of the needle was inserted into the left ventricle and the right atrium was cut to allow efflux of blood. This procedure allowed the blood from all tissues to be washed out to determine the amount of DAI in the tissue, excluding its content in the blood. Following the animals’ euthanasia, the following samples were collected: whole brain, whole eyes, liver lobe, abdominal fat, one kidney, whole spleen, one testis, and selected parts of heart and lungs. The brain was cut between hemispheres in halves; one half was weighed, inserted into 2 mL of SDS-tris lysing buffer (100 mM tris buffer, 10% glycerol, 1% sodium dodecyl sulfate), and homogenized with a tissue homogenizer. The other half of the brain, the homogenates, and all other tissue samples collected were immediately shock-frozen in liquid nitrogen and stored at −80 °C for future analysis.
as §2, §3, §4

The conditions of data set [3]: healthy premenopausal women, cited from earlier work.
[4] abbreviates: male, rat, in vivo, ip, 50 mg/kg.

What is called AUC is concentration integrated over time. As a reminder, the MRT is a mean duration of stay, worked out from the concentration-time curve. A word on the clearance: it is the volume of plasma or blood freed of the substance per unit of time. Low readings indicate inefficient removal, high ones efficient removal. One may read the half-life as the time in which the quantity being followed falls by half. The low end stands for fast loss, the high end for slow loss. A word on the bioavailability: it is dose-corrected exposure relative to a reference, in per cent. A high value points to good availability. The term CL/F denotes the apparent clearance, not corrected for the fraction that reaches the circulation. For orientation: Vd/F means the volume of distribution divided by bioavailability. The Cmax is the highest concentration seen after dosing. On to `O=c1c(-c2ccc(O)cc2)coc2cc(O)ccc12` [DAI in Suspension, 7-hydroxy-3-(4-hydroxyphenyl)-4H-chromen-4-one], for which, in “in vivo [1]”, the AUC is 1580 ng·h/mL, the C0 worked out at 6160 ng/mL, the MRT is 4.29 h and the clearance amounted to 211 mL/min/kg. This compound had a half-life in “in vivo [1]” of 3.83 h. The tmax in “in vivo [2]” (50 mg/kg) was determined as 0.75 h. The compound also showed a bioavailability in “in vivo [2]” (male, rat, in vivo) of 28.2%. In the data set “in vivo [2]” (setting [4]), this compound gave an AUC of 1110 ng·h/mL, a CL/F of 775 mL/min/kg, an MRT of 3.63 h and a Vd/F of 220 L/kg. Also, the half-life in the data set “in vivo [2]” (setting [4]) was 3.41 h. For the same compound, in the data set “in vivo [2]” (male, rat, in vivo, ip, 50 mg/kg, Cmax), the Cmax is 173 ng/mL. This compound came in with a tmax in “in vivo [2]” (male, rat, in vivo, ip, 50 mg/kg, tmax) of at most 0.75 h. Also, in data set [3] (first value of '5.15% vs. 8.7%', at higher intakes), the “Bioavailability of DAI” value was 5.15%. For the same compound, the “Bioavailability of DAI” value in data set [3] (second (comparison) value of '5.15% vs. 8.7%') was 8.7%.

Source of the values: PMC7076374, “Improved Pharmacokinetics and Tissue Uptake of Complexed Daidzein in Rats” (Pharmaceutics, 2020).
